Consider 19 compounds from ChEMBL document CHEMBL5634161, “Discovery of benzamide-based PI3K/HDAC dual inhibitors with marked pro-apoptosis activity in lymphoma cells” (Eur J Med Chem, 2023).

One data set concerns the target Histone deacetylase 3 (Homo sapiens, UniProt O15379). Nature of the data set: Inhibition of HDAC3 (unknown origin) using Boc-Lys(acetyl)-AMC as substrate preincubated for 1 hrs followed by substrate addition and measured after 2 hrs by spectrophotometer based fluorometric assay.
For another data set, the target named is Histone deacetylase 2 (Homo sapiens, UniProt Q92769). Nature of the data set: Inhibition of HDAC2 (unknown origin) using Boc-Lys(acetyl)-AMC as substrate preincubated for 1 hrs followed by substrate addition and measured after 2 hrs by spectrophotometer based fluorometric assay.
In another data set the target is Histone deacetylase 1 (Homo sapiens, UniProt Q13547). Nature of the data set: Inhibition of HDAC1 (unknown origin) using Boc-Lys(acetyl)-AMC as substrate preincubated for 1 hrs followed by substrate addition and measured after 2 hrs by spectrophotometer based fluorometric assay.
Data set [1] addresses Phosphatidylinositol 4,5-bisphosphate 3-kinase catalytic subunit alpha isoform (Homo sapiens, UniProt P42336). Nature of the data set: Inhibition of PI3Kalpha (unknown origin) using PIP2 as substrate incubated for 1 hrs in presence of ATP by ADP-Glo kinase assay.
For data set [2], the system named is JeKo-1. Nature of the data set: Induction of apoptosis in human JeKo-1 cells assessed as necrotic cells at 0.25 uM incubated for 48 hrs by Annexin-V/FITC and PI staining based flow cytometric analysis (reference value: 1.05%). The format is functional.
The next data set relates to HL-60. Nature of the data set: Antiproliferative activity against human HL-60 cells incubated for 48 hrs by resazurin dye based fluorescence micro plate reader analysis. Type of data set: functional, cell-based. The note with it: HL-60, 48 h. For orientation: The colour change of resazurin is a common sign of viable cells or microbes.
Another data set deals with MDA-MB-231. Nature of the data set: Antiproliferative activity against human MDA-MB-231 cells incubated for 48 hrs by resazurin dye based fluorescence micro plate reader analysis. Type of data set: functional, cell-based. Particulars: MDA-MB-231, 48 h.
Data set [3] relates to JeKo-1. Nature of the data set: Induction of apoptosis in human JeKo-1 cells assessed as necrotic cells at 1 uM incubated for 48 hrs by Annexin-V/FITC and PI staining based flow cytometric analysis (reference value: 1.05%). The format is functional.
The test system of data set [4] is JeKo-1. Nature of the data set: Potentiation of CI994-induced apoptosis in human JeKo-1 cells. Type of data set: functional, cell-based.
Data set [5] has as its system JeKo-1. Nature of the data set: Effect on total AKT protein level in human JeKo-1 cells at 0.25 uM incubated for 24 hrs by Western blot analysis. The format is functional, cell-based. For orientation: A western blot detects proteins with antibodies after separation by electrophoresis.
A short description of data set [6]: Inhibition of PI3K/AKT/mTOR signaling in human JeKo-1 cells assessed as decrease in AKT phosphorylation at S473 residue at 0.25 uM incubated for 24 hrs by Western blot analysis. Type of data set: cell-based.
For data set [7], the system named is JeKo-1. Nature of the data set: Induction of apoptosis in human JeKo-1 cells assessed as late apoptotic cells at 1 uM incubated for 48 hrs by Annexin-V/FITC and PI staining based flow cytometric analysis (reference value: 3.66%). Type of data set: functional.
Data set [8] concerns JeKo-1. Nature of the data set: Antiproliferative activity against human JeKo-1 cells incubated for 48 hrs by resazurin dye based fluorescence micro plate reader analysis. Type of data set: functional, cell-based. Particulars: JeKo-1, 48 h.
In data set [9] the test system is JeKo-1. Nature of the data set: Induction of apoptosis in human JeKo-1 cells assessed as viable cells at 0.25 uM incubated for 48 hrs by Annexin-V/FITC and PI staining based flow cytometric analysis (reference value: 94.1%). Type of data set: functional. The note with it: read-out: Activity. In general terms: Flow cytometry measures light scatter and fluorescence of single cells or particles in a stream.

In data set [10] the test system is JeKo-1. Nature of the data set: Induction of apoptosis in human JeKo-1 cells assessed as late apoptotic cells at 0.5 uM incubated for 48 hrs by Annexin-V/FITC and PI staining based flow cytometric analysis (reference value: 3.66%). The format is functional.
Data set [11] relates to JeKo-1. Nature of the data set: Induction of apoptosis in human JeKo-1 cells assessed as viable cells at 1 uM incubated for 48 hrs by Annexin-V/FITC and PI staining based flow cytometric analysis (reference value: 94.1%). The format is functional. The note with it: read-out: Activity.
Data set [12] concerns JeKo-1. Nature of the data set: Induction of apoptosis in human JeKo-1 cells assessed as late apoptotic cells at 0.25 uM incubated for 48 hrs by Annexin-V/FITC and PI staining based flow cytometric analysis (reference value: 3.66%). The format is functional.
Data set [13] concerns JeKo-1. Nature of the data set: Induction of apoptosis in human JeKo-1 cells assessed as necrotic cells at 0.5 uM incubated for 48 hrs by Annexin-V/FITC and PI staining based flow cytometric analysis (reference value: 1.05%). The format is functional.
Data set [14] is described as follows: Cytotoxicity against human HL7702 cells incubated for 48 hrs by resazurin dye based fluorescence micro plate reader analysis. The format is toxicity, cell-based. Particulars: HL7702 (L02) cells.
A further data set deals with MM1.S. Nature of the data set: Antiproliferative activity against human MM1.S cells incubated for 48 hrs by resazurin dye based fluorescence micro plate reader analysis. Type of data set: functional, cell-based.
The test system of data set [15] is JeKo-1. Nature of the data set: Induction of apoptosis in human JeKo-1 cells assessed as viable cells at 0.5 uM incubated for 48 hrs by Annexin-V/FITC and PI staining based flow cytometric analysis (reference value: 94.1%). The format is functional. The note with it: read-out: Activity.

Activity calls are given as the source filed them. The calls are words filed in the database; no cut-off is given here.

The term IC50 denotes the concentration needed to halve the response being measured.

Sequence of Phosphatidylinositol 4,5-bisphosphate 3-kinase catalytic subunit alpha isoform (P42336 whole entry, canonical isoform): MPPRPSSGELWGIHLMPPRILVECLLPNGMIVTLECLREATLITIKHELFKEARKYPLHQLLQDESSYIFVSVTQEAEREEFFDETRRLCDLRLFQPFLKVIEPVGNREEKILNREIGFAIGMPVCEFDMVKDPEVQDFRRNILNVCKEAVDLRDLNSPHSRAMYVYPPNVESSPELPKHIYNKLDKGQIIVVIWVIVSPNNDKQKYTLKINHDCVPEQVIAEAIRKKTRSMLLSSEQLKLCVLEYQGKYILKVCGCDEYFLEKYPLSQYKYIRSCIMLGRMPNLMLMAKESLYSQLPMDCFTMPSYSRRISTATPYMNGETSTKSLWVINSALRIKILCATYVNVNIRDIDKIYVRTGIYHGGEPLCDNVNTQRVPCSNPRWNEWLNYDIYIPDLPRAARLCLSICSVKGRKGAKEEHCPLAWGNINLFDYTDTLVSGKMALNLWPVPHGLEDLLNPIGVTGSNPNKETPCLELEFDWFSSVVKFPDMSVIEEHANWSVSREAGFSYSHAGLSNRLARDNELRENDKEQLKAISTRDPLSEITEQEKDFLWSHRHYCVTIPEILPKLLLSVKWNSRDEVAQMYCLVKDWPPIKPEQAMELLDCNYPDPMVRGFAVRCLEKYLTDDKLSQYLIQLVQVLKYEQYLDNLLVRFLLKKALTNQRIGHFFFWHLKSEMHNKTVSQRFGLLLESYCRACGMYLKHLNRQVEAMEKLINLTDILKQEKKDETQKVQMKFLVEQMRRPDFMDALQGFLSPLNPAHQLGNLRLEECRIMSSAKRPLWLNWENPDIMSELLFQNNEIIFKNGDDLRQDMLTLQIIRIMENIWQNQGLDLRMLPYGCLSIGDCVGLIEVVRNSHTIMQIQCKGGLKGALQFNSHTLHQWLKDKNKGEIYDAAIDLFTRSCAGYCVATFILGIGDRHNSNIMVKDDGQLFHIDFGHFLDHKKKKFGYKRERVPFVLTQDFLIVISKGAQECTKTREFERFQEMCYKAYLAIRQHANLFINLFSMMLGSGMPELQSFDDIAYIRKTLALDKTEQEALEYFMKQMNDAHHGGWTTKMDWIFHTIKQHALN
Sequence of Histone deacetylase 1 (Q13547 whole entry, canonical isoform): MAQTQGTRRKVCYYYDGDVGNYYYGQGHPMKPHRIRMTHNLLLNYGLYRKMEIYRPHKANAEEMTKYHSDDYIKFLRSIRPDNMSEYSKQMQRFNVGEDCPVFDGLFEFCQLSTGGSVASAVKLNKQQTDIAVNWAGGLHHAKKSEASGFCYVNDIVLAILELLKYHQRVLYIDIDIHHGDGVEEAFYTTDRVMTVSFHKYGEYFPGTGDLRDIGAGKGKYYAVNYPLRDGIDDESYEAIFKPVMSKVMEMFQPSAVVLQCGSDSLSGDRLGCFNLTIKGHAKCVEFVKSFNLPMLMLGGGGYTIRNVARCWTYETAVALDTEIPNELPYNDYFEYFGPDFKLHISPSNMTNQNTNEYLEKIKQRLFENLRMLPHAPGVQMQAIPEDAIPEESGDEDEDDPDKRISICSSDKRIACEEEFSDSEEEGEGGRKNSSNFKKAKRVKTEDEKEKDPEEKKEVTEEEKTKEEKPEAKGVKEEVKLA
Sequence of Histone deacetylase 2 (Q92769 whole entry): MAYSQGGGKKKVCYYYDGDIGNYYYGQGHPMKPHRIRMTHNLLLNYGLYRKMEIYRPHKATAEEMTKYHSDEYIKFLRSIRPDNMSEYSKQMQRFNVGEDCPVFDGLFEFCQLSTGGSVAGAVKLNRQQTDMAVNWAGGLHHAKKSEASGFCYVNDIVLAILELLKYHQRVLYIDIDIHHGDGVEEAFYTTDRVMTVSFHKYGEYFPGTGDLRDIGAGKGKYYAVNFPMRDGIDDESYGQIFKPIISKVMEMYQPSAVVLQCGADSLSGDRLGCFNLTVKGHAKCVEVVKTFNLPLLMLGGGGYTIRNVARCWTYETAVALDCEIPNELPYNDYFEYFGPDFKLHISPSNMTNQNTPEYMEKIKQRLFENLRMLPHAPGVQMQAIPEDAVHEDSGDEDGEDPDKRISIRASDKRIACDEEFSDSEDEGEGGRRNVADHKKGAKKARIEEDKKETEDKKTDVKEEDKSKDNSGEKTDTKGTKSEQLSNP
Sequence of Histone deacetylase 3 (O15379 whole entry): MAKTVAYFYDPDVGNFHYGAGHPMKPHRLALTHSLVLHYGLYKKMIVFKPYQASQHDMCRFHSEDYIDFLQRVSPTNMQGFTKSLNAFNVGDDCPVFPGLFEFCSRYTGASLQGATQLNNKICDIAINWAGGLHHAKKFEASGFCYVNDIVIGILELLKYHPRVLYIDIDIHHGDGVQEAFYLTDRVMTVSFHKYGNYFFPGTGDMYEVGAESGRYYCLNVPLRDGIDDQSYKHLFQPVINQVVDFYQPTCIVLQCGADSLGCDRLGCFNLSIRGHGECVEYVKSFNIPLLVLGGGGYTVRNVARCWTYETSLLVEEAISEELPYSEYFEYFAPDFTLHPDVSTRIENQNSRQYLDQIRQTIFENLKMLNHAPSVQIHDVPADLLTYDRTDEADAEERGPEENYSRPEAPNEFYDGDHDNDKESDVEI

Turning to `Nc1ccccc1NC(=O)CCCCCCCNC(=O)c1ccc(NC(=O)Nc2ccc(-c3nc(N4CCOCC4)nc(N4CCOCC4)n3)cc2)cc1`, the IC50 amounted to 210 nM against Histone deacetylase 3, 490 nM at Histone deacetylase 2, 345 nM against Histone deacetylase 1 and 75.7 nM in data set [1].
In the case of `CNCCNC(=O)c1ccc(NC(=O)Nc2ccc(-c3nc(OC)nc(N4CCOCC4)n3)cc2)cc1`, the Activity with JeKo-1 [2] was 0.73%; in the data set with JeKo-1 [3] it was 0.4%; with JeKo-1 [7] it was 8.29%; with JeKo-1 [10], 3.51%; in the data set on JeKo-1 [12], 4.5%; in the data set on JeKo-1 [13], 0.41%. The IC50 with HL-60 was 3100 nM; in the data set with MDA-MB-231, 4200 nM; in the data set with JeKo-1 [8] it was 1100 nM; in data set [1], 2.4 nM; with MM1.S, 3300 nM. For the same compound, the outcome with JeKo-1 [4] was Active. Besides, in the data set with JeKo-1 [5], the result was inactive. Also, the inhibition entry in data set [6] is “Active”. In the data set on JeKo-1 [9], the viability at 0.25 µM was 93.9%. In the data set with JeKo-1 [11], the viability at 1 µM is 91.5%. Besides, the 50% inhibitory concentration (IC50) at 48 h in [14] was > 100000 nM. In addition, in the data set on JeKo-1 [15], the viability at 0.5 µM worked out at 94.8%.
For `Nc1ccccc1NC(=O)c1ccc(NC(=O)Nc2ccc(-c3nc(OC4COC4)nc(N4CCOCC4)n3)cc2)cc1`, the concentration for half-maximal inhibition (IC50) against Histone deacetylase 3 is > 10000 nM; against Histone deacetylase 2, > 10000 nM; at Histone deacetylase 1, > 10000 nM; in data set [1] it was 2.4 nM.
As for `Nc1ccccc1NC(=O)CCCCCNC(=O)c1ccc(NC(=O)Nc2ccc(-c3nc(OC4CCOC4)nc(N4CCOCC4)n3)cc2)cc1` (centres undefined), the IC50 against Histone deacetylase 3 turned out to be 54 nM; at Histone deacetylase 2, 247 nM; on Histone deacetylase 1, 211 nM; in [1], 7.9 nM.
With `COc1nc(-c2ccc(NC(=O)Nc3ccc(C(=O)Nc4ccc(F)c(F)c4N)cc3)cc2)nc(N2CCOCC2)n1`, the half-maximal inhibitory concentration (IC50) at Histone deacetylase 2 is > 10000 nM; against Histone deacetylase 1 it was > 10000 nM; in data set [1] it was 20.5 nM.
For `Nc1ccccc1NC(=O)CCCNC(=O)c1ccc(NC(=O)Nc2ccc(-c3nc(N4CCOCC4)nc(N4CCOCC4)n3)cc2)cc1`, the 50% inhibitory concentration (IC50) at Histone deacetylase 3 is > 10000 nM; on Histone deacetylase 2, > 10000 nM; against Histone deacetylase 1 it was > 10000 nM; in data set [1], 11.6 nM.
For the compound `Nc1ccccc1NC(=O)CCCCCNC(=O)c1ccc(NC(=O)Nc2ccc(-c3nc(N4CCOCC4)nc(N4CCOCC4)n3)cc2)cc1`, the concentration for half-maximal inhibition (IC50) on Histone deacetylase 3 worked out at 99.2 nM; on Histone deacetylase 2, 602 nM; against Histone deacetylase 1 it was 227 nM; in data set [1] it was 17.3 nM.
Regarding `Nc1ccccc1NC(=O)CCCCCCNC(=O)c1ccc(NC(=O)Nc2ccc(-c3nc(OC4COC4)nc(N4CCOCC4)n3)cc2)cc1`, the IC50 against Histone deacetylase 3 was determined as 56.1 nM; against Histone deacetylase 2, 168 nM; on Histone deacetylase 1, 178 nM; in data set [1], 9 nM.
Turning to `Nc1c(NC(=O)c2ccc(NC(=O)Nc3ccc(-c4nc(N5CCOCC5)nc(N5CCOCC5)n4)cc3)cc2)ccc(F)c1F`, the IC50 at Histone deacetylase 3 was 1410 nM; on Histone deacetylase 2, > 10000 nM; on Histone deacetylase 1, > 10000 nM; in data set [1] it was 14.3 nM.
Take `Nc1cc(F)ccc1NC(=O)c1ccc(NC(=O)Nc2ccc(-c3nc(N4CCOCC4)nc(N4CCOCC4)n3)cc2)cc1`: the concentration for half-maximal inhibition (IC50) against Histone deacetylase 3 was 499 nM; against Histone deacetylase 2 it was > 10000 nM; against Histone deacetylase 1 it was > 10000 nM; in [1], 17 nM.
On to `Nc1ccccc1NC(=O)CCCCCCNC(=O)c1ccc(NC(=O)Nc2ccc(-c3nc(N4CCOCC4)nc(N4CCOCC4)n3)cc2)cc1`, for which the IC50 against Histone deacetylase 3 turned out to be 76.5 nM; against Histone deacetylase 2 it was 295 nM; at Histone deacetylase 1, 404 nM; in data set [1], 29.3 nM.
Turning to `Nc1ccccc1NC(=O)CCCCCNC(=O)c1ccc(NC(=O)Nc2ccc(-c3nc(OC4COC4)nc(N4CCOCC4)n3)cc2)cc1`, the IC50 on Histone deacetylase 3 amounted to 17.7 nM; at Histone deacetylase 2, 128 nM; at Histone deacetylase 1 it was 81.5 nM; in [1], 4.5 nM.
Regarding `Nc1ccccc1NC(=O)CNC(=O)c1ccc(NC(=O)Nc2ccc(-c3nc(N4CCOCC4)nc(N4CCOCC4)n3)cc2)cc1`, the half-inhibitory concentration (IC50) against Histone deacetylase 3 was > 10000 nM; on Histone deacetylase 2, > 10000 nM; against Histone deacetylase 1, 1950 nM; in data set [1], 37.7 nM.
For `COc1nc(-c2ccc(NC(=O)Nc3ccc(C(=O)Nc4ccccc4N)cc3)cc2)nc(N2CCOCC2)n1`, the 50% inhibitory concentration (IC50) against Histone deacetylase 3 is 334 nM; at Histone deacetylase 2, > 10000 nM; against Histone deacetylase 1, > 10000 nM; in [1], 11.2 nM.
Consider `Nc1ccccc1NC(=O)CCCCNC(=O)c1ccc(NC(=O)Nc2ccc(-c3nc(N4CCOCC4)nc(N4CCOCC4)n3)cc2)cc1`, for which the IC50 was > 10000 nM at Histone deacetylase 3, > 10000 nM at Histone deacetylase 2, > 10000 nM at Histone deacetylase 1 and 13.3 nM in data set [1].
As for `Nc1ccccc1NC(=O)c1ccc(NC(=O)Nc2ccc(-c3nc(N4CCOCC4)nc(N4CCOCC4)n3)cc2)cc1`, the IC50 against Histone deacetylase 3 was 134 nM; on Histone deacetylase 2, > 10000 nM; against Histone deacetylase 1, > 10000 nM; in [1] it was 6.5 nM.
`Nc1ccccc1NC(=O)CCNC(=O)c1ccc(NC(=O)Nc2ccc(-c3nc(N4CCOCC4)nc(N4CCOCC4)n3)cc2)cc1`: the IC50 at Histone deacetylase 3 is > 10000 nM; against Histone deacetylase 2, > 10000 nM; against Histone deacetylase 1, > 10000 nM; in data set [1], 51.7 nM.
As for `COc1nc(-c2ccc(NC(=O)Nc3ccc(C(=O)NCCCCCCC(=O)Nc4ccccc4N)cc3)cc2)nc(N2CCOCC2)n1`, the IC50 came to 24.6 nM on Histone deacetylase 3, 459 nM against Histone deacetylase 2, 336 nM against Histone deacetylase 1 and 88.3 nM in [1].
With `Nc1ccccc1NC(=O)CCCCCCNC(=O)c1ccc(NC(=O)Nc2ccc(-c3nc(OC4CCOC4)nc(N4CCOCC4)n3)cc2)cc1` (centres undefined), the IC50 on Histone deacetylase 3 was determined as 69.3 nM; against Histone deacetylase 2, 241 nM; on Histone deacetylase 1 it was 219 nM; in data set [1] it was 16.6 nM.
